What was measured:
normal rats = assay: Novel object recognition (NOR); assay type: in vivo, rat; conditions: for NOR duration of statistically significant effect after dosing: dose 0.004 μM/kg (0.004 μmol/kg oral), FIG. 2
Procedure: Memory was assessed by using a three-trial novel object recognition test (Luine et al., Pharm. Biochem. Behav. 74, 213-220 (2002)). On the first day (exploratory trial), rats were allowed to explore an open arena (44.5×44.5×30.5 cm) for 6 min. On the second day (acquisition trial), rats were allowed to explore the same arena in the presence of two identical objects (both object A) for 3 min. On the third day (retention or recall trial), performance was evaluated by allowing the same animal to re-explore the arena for 3 min in the presence of two different objects: the familiar object A and a novel object B. An inter-trial interval of 24 h was imposed between the three NOR trials. Recognition memory was assessed by comparing the time spent exploring a novel (object B) versus a familiar (object A) object during the recall trial. Recognition index was assessed for each animal and expressed as a ratio ((time B/time A+time B)×100).
(R)-3-((E)-2-(Pyrrolidin-3-yl)vinyl)-5-(tetrahydropyran-4-yloxy)pyridine or a salt thereof improved long-term visual episodic/declarative memory as assessed by novel object recognition (NOR) task following oral dosing in normal rats. […] In the two “recall only” sessions; subset of animals were orally dosed with water on day 1 (i.e., exploratory session) and day 2 (i.e., acquisition session) and then orally dosed either with 1.1 μmol/kg (R)-3-((E)-2-(pyrrolidin-3-yl)vinyl)-5-(tetrahydropyran-4-yloxy)pyridine or a salt thereof (left panel) or 0.04 μmol/kg (right panel) on day 3 (i.e., recall session). […] In the Figure, the dashed line at 65% denotes subjective criteria for biological cognitive enhancing activity. *P<0.05.
(R)-3-((E)-2-(Pyrrolidin-3-yl)vinyl)-5-(tetrahydropyran-4-yloxy)pyridine or a salt thereof was evaluated for its duration of effect in the NOR task in normal rats. […] In the Figure, the dashed line at 65% denotes subjective criteria for biological cognitive enhancing activity (*P<0.05).

[1] = assay type: physicochemical
From the text: One aspect of the present invention relates to novel salt forms of (R)-3-((E)-2-(pyrrolidin-3-yl)vinyl)-5-(tetrahydropyran-4-yloxy)pyridine. […] However, the free base may react with both inorganic and organic acids to make acid addition salts that have physical properties that are advantageous for the preparation of pharmaceutical compositions such as crystallinity, water solubility, and stability toward chemical degradation.

α4β2 = α4β2 (Homo sapiens, UniProt P17787+P43681); assay: Calcium flux assay, SH-EP1/human α4β2 cells; assay type: cell-based; design: expressed in transfected cells; host or cells: SH-EP1
From the text: Cellular efficacy: The aim of these studies was to determine functional activity of (R)-3-((E)-2-(pyrrolidin-3-yl)vinyl)-5-(tetrahydropyran-4-yloxy)pyridine or a salt thereof at human recombinant α4β2 receptors.

[2] = target: T1, human native muscle receptors (Homo sapiens, UniProt P02708+P07510+Q07001); assay: Ca flux assay, TE-671 cells; assay type: cell-based
T1 construct: human native muscle-type nicotinic receptors (likely α1β1γδ); endogenous in cells; host or cells: TE-671 (TE671/RD)
From the text: Activation of muscle-type nAChRs was established on the human clonal line TE671/RD, which is derived from an embryonal rhabdomyosarcoma (Stratton et al., Carcinogen 10: 899 (1989)). These cells express receptors that have pharmacological (Lukas, J. Pharmacol. Exp. Ther. 251: 175 (1989)), electrophysiological (Oswald et al., Neurosci. Lett. 96: 207 (1989)), and molecular biological profiles (Luther et al., J. Neurosci. 9: 1082 (1989)) similar to the muscle-type nAChR.
(R)-3-((E)-2-(Pyrrolidin-3-yl)vinyl)-5-(tetrahydropyran-4-yloxy)pyridine or a salt thereof was tested in ganglion and muscle-type nicotinic receptor ion flux assays to examine functional selectivity.

[3] = target: T2, human native ganglion-type nicotinic receptors (likely α3β4) (Homo sapiens, UniProt P30926+P32297); assay: [3H]epibatidine binding, SH-SY5Y membranes
T2 construct: human native ganglion-type nicotinic receptors (likely α3β4); endogenous in cells; host or cells: SH-SY5Y

[4] = assay type: in vitro ADME; conditions: human
From the text: (§1) Therefore any variation of (R)-3-((E)-2-(pyrrolidin-3-yl)vinyl)-5-(tetrahydropyran-4-yloxy)pyridine or a salt thereof metabolism in human due to CYP polymorphism is expected to be less than 2 fold due to the significant renal clearance and low hepatic clearance.

CYP2D6 and FMO3 = assay type: in vitro ADME; conditions: human
From the text: as §1

[5] = human
From the text: as §1

T1 sequence (P02708 21-457): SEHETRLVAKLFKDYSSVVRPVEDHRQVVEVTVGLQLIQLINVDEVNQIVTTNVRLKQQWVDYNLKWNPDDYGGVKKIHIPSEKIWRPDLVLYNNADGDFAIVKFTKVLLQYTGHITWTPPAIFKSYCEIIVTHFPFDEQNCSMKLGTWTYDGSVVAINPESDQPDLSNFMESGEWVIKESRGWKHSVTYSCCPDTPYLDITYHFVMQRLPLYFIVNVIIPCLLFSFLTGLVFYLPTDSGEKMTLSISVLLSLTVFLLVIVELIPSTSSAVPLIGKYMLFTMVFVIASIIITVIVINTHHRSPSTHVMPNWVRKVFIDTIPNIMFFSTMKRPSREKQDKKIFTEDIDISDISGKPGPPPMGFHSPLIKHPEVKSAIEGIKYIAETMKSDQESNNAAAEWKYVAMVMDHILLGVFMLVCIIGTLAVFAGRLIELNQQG
T1 sequence (P11230 24-501 partner): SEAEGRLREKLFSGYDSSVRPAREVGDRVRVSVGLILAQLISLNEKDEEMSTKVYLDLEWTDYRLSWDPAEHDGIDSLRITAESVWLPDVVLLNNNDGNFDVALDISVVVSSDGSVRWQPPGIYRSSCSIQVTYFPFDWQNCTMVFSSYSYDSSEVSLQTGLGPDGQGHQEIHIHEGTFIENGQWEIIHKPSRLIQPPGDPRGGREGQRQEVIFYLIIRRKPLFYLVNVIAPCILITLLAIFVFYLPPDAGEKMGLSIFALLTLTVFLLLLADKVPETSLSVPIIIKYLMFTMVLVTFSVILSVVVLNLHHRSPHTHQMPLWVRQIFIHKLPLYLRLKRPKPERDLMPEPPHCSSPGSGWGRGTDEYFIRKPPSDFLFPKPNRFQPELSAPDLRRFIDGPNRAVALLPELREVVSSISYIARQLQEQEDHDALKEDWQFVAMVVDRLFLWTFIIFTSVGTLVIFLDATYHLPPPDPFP
T1 sequence (P07510 23-517): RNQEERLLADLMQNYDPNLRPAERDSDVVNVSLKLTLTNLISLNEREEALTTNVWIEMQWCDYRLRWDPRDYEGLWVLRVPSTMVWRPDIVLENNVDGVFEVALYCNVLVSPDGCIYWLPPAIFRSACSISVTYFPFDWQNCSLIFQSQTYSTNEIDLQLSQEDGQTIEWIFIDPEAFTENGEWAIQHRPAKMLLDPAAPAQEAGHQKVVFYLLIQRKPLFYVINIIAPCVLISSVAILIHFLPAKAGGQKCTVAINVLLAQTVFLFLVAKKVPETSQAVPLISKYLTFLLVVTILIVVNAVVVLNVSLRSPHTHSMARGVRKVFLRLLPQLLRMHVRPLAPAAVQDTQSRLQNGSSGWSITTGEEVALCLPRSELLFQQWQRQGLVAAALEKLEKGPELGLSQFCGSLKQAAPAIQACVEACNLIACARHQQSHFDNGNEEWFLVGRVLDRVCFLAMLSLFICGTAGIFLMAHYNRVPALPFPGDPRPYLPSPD
T1 sequence (Q07001 22-517): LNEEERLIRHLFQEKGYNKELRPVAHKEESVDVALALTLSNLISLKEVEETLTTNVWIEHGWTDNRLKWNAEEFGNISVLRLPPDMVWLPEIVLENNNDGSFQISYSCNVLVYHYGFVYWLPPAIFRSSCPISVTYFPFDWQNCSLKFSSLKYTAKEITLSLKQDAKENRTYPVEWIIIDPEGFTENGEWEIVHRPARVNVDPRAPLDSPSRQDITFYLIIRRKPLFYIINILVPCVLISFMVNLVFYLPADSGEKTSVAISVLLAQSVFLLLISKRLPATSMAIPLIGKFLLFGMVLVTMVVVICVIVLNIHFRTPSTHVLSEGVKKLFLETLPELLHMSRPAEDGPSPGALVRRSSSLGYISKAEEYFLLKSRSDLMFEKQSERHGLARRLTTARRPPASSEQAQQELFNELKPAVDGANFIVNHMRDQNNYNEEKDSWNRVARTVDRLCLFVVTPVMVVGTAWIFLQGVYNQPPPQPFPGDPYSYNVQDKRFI
Chain of α4β2 (P43681 29-627 limits assumed): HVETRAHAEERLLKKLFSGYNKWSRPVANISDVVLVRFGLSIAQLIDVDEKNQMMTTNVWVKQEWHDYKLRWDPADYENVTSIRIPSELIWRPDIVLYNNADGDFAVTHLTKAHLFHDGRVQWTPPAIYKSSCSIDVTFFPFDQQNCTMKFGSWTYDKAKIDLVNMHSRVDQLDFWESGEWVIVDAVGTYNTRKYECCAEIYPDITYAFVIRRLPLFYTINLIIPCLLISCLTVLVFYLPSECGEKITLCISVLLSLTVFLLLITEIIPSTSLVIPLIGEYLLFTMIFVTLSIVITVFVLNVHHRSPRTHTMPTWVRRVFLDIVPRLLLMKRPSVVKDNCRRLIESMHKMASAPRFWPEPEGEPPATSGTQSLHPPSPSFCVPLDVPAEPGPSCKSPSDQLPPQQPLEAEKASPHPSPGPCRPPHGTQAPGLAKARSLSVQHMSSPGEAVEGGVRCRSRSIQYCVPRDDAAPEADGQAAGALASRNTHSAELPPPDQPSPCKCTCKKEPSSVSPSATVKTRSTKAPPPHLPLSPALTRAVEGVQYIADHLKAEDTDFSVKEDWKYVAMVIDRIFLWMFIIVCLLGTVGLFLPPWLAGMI
Chain of α4β2 (P17787 26-502): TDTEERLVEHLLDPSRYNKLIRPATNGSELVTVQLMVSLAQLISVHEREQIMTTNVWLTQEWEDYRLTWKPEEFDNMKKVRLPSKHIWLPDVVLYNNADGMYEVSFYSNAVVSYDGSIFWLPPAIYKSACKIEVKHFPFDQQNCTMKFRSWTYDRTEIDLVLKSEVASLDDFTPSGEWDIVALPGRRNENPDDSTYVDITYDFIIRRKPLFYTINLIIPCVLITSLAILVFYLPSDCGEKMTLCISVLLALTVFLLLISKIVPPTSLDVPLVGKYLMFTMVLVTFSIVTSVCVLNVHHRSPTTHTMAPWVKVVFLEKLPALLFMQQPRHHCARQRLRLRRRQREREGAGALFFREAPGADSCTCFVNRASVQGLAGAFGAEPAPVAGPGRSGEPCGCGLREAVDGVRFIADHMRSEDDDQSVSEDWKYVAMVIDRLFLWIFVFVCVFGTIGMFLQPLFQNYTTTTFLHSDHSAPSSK
T2 sequence (P30926 22-498): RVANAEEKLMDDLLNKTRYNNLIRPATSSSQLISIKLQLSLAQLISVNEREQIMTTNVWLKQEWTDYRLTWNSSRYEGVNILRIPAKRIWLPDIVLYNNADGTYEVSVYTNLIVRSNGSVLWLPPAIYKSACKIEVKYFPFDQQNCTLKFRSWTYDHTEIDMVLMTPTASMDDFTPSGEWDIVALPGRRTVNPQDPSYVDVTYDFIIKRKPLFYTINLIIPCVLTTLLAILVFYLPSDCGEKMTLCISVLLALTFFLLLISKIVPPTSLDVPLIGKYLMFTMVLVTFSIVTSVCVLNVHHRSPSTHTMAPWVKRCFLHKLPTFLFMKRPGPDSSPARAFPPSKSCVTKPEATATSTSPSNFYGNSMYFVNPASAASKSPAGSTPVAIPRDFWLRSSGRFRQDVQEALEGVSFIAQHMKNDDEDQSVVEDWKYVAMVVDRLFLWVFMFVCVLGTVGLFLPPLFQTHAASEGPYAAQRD
T2 sequence (P32297 32-505): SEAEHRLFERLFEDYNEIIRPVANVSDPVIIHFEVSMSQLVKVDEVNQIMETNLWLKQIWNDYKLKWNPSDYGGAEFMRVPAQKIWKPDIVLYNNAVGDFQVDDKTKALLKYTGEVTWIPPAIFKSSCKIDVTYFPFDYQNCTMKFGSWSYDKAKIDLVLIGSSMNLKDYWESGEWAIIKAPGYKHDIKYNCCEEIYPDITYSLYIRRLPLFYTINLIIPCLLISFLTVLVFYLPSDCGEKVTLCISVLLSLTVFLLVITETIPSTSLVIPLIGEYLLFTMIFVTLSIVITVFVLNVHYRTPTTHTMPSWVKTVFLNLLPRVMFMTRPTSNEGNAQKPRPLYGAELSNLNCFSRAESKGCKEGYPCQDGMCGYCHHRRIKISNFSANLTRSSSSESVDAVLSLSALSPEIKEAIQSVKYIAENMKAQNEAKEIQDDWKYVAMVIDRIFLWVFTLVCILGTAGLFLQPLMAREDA

Compound: C(=C\[C@H]1CCNC1)/c1cncc(OC2CCOCC2)c1 [Compound A, (R)-3-((E)-2-(pyrrolidin-3-yl)vinyl)-5-(tetrahydropyran-4-yloxy)pyridine]
- NOR recognition index (normal rats; 0.004 μmol/kg oral, 0.5 h after dosing): 72±2%
- NOR recognition index (normal rats; 0.004 μmol/kg oral, 6 h after dosing): 70±3%
- NOR recognition index (normal rats; 0.004 μmol/kg oral, 8 h after dosing): 70±4%
- NOR recognition index (normal rats; 0.04 μmol/kg oral, normal rats, 24 h after acquisition trial): 71±2%
- NOR recognition index (normal rats; 1.1 μmol/kg oral, normal rats, 24 h after acquisition trial): 61±3%
- NOR lowest dose with statistically significant effect (normal rats; FIG. 1): ≥ 0.004 µM/kg
- NOR duration of statistically significant effect after dosing (normal rats): ≤ 8 h
- NOR duration of statistically significant effect after dosing (normal rats; listed as (R)-3-((E)-2-(pyrrolidin-3-yl)vinyl)-5-(tetrahydropyran-4-yloxy)pyridine): up to 8 h
- NOR duration of statistically significant effect after dosing (normal rats; listed as Formula I): ≤ 8 h
- NOR minimum effect dose (MED) (normal rats; oral, follow-up NOR study, rats): 0.004 µmol/kg
- NOR recognition index, recall only sessions (normal rats; single oral administration on day 3, 1.1 μmol/kg or 0.04 μmol/kg): significantly above controls
- water solubility [1]: limited water solubility
- EC50 (α4β2): 100 nM
- Emax (α4β2; SH-EP1, read-out: Human recombinant (SH-EP 1) α4β2 Emax (Ca flux)): 76%
- Human recombinant (SH-EP 1) α4β2 Emax (Ca flux) (α4β2; in relation to 10 μM nicotine, 24-h incubation at 29° C.): μM, 76%
- EC50 [2]: 13 µM
- Human (TE671/RD) muscle Emax (Ca flux) ([2]; TE-671 cells): μM, 37%
- Emax ([2]; TE-671 cells, read-out: Human (TE671/RD) muscle Emax (Ca flux)): 37%
- Ki [3]: 3.4 µM
- hepatic turnover rate [4]: low hepatic turnover rate
- enzymes contributing to metabolism (CYP2D6 and FMO3): both CYP2D6 and FMO3 contributed to the metabolism
- renal clearance share of total clearance [5]: more than 50%

Source: patent US8153821B2, “Compounds” (priority 2008, dated 2012)
